{
  "source": "paper PMC8443738",
  "about": "“Interplay between membrane active host defense peptides and heme modulates their assemblies and in vitro activity” (Scientific Reports, 2021)",
  "key": {"[1]": {"test_system": "EBC-1 cells", "assay": "Cytostasis (viability) assay, Alamar Blue", "type": "cell-based, human", "settings": "for live cell %: mean ± SEM; for dead cells: alone", "experimental": "EBC-1 (squamous cell carcinoma, metastatic, origin: bronchi, JCRB No: JCRB0820[85],[86], originally purchased from Thermo Fisher Scientific and provided by the National Institute of Oncology, Budapest, Hungary) cells were maintained as an adherent culture in DMEM medium (Lonza) containing 10% FBS (Gibco) and supplemented with 2 mM of L-glutamine (Lonza), 1% non-essential amino acids (Gibco), 1 mM sodium pyruvate (Sigma-Aldrich), 1% penicillin–streptomycin (10,000 units penicillin and 10 mg streptomycin/ml, Gibco), at 37 °C in a humidified atmosphere containing 5% CO2.\nFor testing cytostatic effects, 3500 cells per well were plated in 96-well flat bottom tissue culture plates (Sarstedt, Nümbrecht, Germany) in complete DMEM medium. LL-37 stock solution was prepared in serum-free medium (SFM) at 200 µM, while heme compounds were dissolved first in 10 mM NaOH at 3 mM, sterile filtered, and diluted tenfold in SFM. Cells were incubated with the peptide, small molecules, or peptide-small molecule mixtures for 24 h. Then cells were washed three times with SFM and cultured further for 72 h in complete medium. Cytostatic activity was determined using the Alamar Blue assay, where 20 µl Alamar Blue (resazurin sodium salt, Sigma-Aldrich) solution (0.15 mg/ml, dissolved in PBS, pH 7.4) was added to each well. Following a 3 h incubation, fluorescence (λEx = 530/30 and λEm = 610/10 nm) was read using a Synergy H4 multi-mode microplate reader (BioTek, Winooski, VT, USA). Live cell percentage of treated cells was calculated compared to control cells treated with medium only. All measurements were performed in triplicates, and live cell % values together with SEM are presented."}, "[2]": {"test_system": "EBC-1 cells", "assay": "Cell morphology by bright field microscopy", "type": "cell-based, human", "settings": "3 h exposure; for cell morphology: 33 µM", "experimental": "To visualize cell morphology changes, microscopic images of EBC-1 cells were captured. EBC-1 cells were plated in a 96-well flat bottom tissue culture plate and treated with peptide, heme compounds, and their mixtures as described in the above section. Microscopic images of the adherent cells were taken after the first 3 h of the treatment using an Olympus CKX41 microscope (Hamburg, Germany, objective: 20×)."}, "[3]": {"assay": "Intrinsic Trp fluorescence quenching by hemin", "type": "binding", "settings": "PBS, 25 °C", "experimental": "Spectra were collected using a Jobin Yvon Fluoromax-3 spectrofluorometer at 25 °C in PBS. Spectra were recorded three times, averaged, and corrected by subtracting an appropriate blank. The Trp fluorophore was excited at 295 nm, and emission was monitored from 305 to 400 nm. 2 µM peptide was titrated with subsequent addition of hemin (up to 20 μM) in the presence and absence of liposomes (100 µM total lipid)."}, "[4]": {"assay": "Dynamic light scattering of peptide-hemin assemblies", "type": "physicochemical", "settings": "three-component systems: 25 µM peptide, 75 µM hemin, 635 µM lipid (PC or PC/PG), PBS, various mixing order", "experimental": "Particle size and size distribution of the peptide-small molecule mixtures were measured at 20 °C using a W130i dynamic light scattering device (DLS, Avid Nano Ltd., High Wycombe, UK) with a diode laser (660 nm) and a photodiode detector. Low volume disposable cuvettes with 1 cm path-length were used (UVette, Eppendorf Austria GmbH). Samples prepared for CD experiments were measured after completing the titration. The time-dependent autocorrelation function was measured for 10 s, repeated 10 times."}, "[5]": {"test_system": "erythrocytes", "settings": "cited from earlier work", "text": "Based on our results on model membranes, and in vitro assays on the selected cell line above, further activity alterations of the AMPs upon complex formation with hemin may be speculated. First of all, AMP–heme interaction could result in reduced antimicrobial activity by lowering the active peptide concentration. This can be achieved either by sequestering the free available peptide fraction by heme not allowing membrane interaction or by precluding formation of the active membrane-bound conformation of the peptides in the hemin-complexed membrane-associated form. A further interesting point ..."}, "[6]": {"settings": "cited from earlier work", "experimental": "Based on CD spectral features, apparent dissociation constants in the 20–50 μM range could be estimated for the peptide-hemin interactions as a single dose of a molar equivalent of hemin (25 μM) was enough here to reach close-to-saturation levels for several peptides (Fig. 1). […] It should be noted that classical considerations on affinity determination might fail for the ..."}, "[7]": {"settings": "hemin-to-peptide ratio of 1:3; no lipid; cited from earlier work"}},
  "note": "“And” between values parts separate entries of the source, which are not always exact repeats. Equal values may be shown once. Where a name gives a salt, the structure may show the parent alone. Read-outs that look alike come from different tables or passages of the source.",
  "data": [
    {"molecule": "C=CC1=C(C)/C(=C/C2=NC(=C\\c3[nH]c(/C=C4\\NC(=O)C(C)=C4C=C)c(C)c3CCC(=O)O)/C(CCC(=O)O)=C2C)NC1=O", "note": "[biliverdin, biliverdin HCl]", "values": [
      {"measurement": "toxicity", "setting": "[1]; EBC-1, up to 100 µM (Fig. S12)", "value": "No significant toxicity"},
      {"measurement": "cytostatic effect", "setting": "[1]; EBC-1, up to 100 µM, 24 h treatment + 72 h culture, Alamar Blue", "value": "No cytostatic effect"},
      {"measurement": "cell morphology", "setting": "[2]", "value": "Non-damaged cells"}
    ]},
    {"molecule": "CM15", "values": [
      {"measurement": "Trp fluorescence quenching by hemin", "setting": "[3]; 2 µM peptide, 10 µM hemin, no lipid", "value": "total signal loss"},
      {"measurement": "average particle size of aggregates (DLS)", "setting": "[4]", "value": "≤ 1", "unit": "µm"},
      {"measurement": "hemolytic effects", "setting": "[5]", "value": "moderate"}
    ]},
    {"molecule": "LLGDFFRKSKEKIGKEFKRIVQRIKDFLRNLVPRTES [LL-37, the only human cathelicidin, a host defense peptide]", "values": [
      {"measurement": "live cell percentage", "setting": "[1]; EBC-1, 17 µM LL-37 administered together with hemin or biliverdin", "value": "25–35%"},
      {"measurement": "live cell %", "setting": "[1]; EBC-1, 17 µM LL-37 alone, relative to untreated control, n = 3", "value": "4.7 ± 1.3% and ~ 5%"},
      {"measurement": "live cell %", "setting": "[1]; EBC-1, 17 µM LL-37 with biliverdin at 1:3 ratio, n = 3", "value": "34 ± 6", "unit": "%"},
      {"measurement": "live cell %", "setting": "[1]; EBC-1, 17 µM LL-37 with hemin at 1:1 peptide to hemin ratio, n = 3", "value": "36 ± 12", "unit": "%"},
      {"measurement": "live cell %", "setting": "[1]; EBC-1, 17 µM LL-37 with hemin at 1:3 ratio, n = 3", "value": "23 ± 6", "unit": "%"},
      {"measurement": "cells killed", "setting": "[1]; EBC-1, LL-37 at 17 µM, 24 h treatment + 72 h culture, Alamar Blue, n = 3", "value": "~ 90%"},
      {"measurement": "cells killed", "setting": "[1]; EBC-1, LL-37 at 50 µM, 24 h treatment + 72 h culture, Alamar Blue, n = 3", "value": "almost all cells"},
      {"measurement": "cytostatic effect", "setting": "[1]; EBC-1, LL-37 at ~5 µM, 24 h treatment + 72 h culture, Alamar Blue, n = 3", "value": "no significant effect"},
      {"measurement": "cell morphology alterations", "setting": "[2]; 17 µM LL-37", "value": "shrinkage, and membrane defects"},
      {"measurement": "Kd", "setting": "[6]; calculated, read-out: Kd, interaction with hemin", "value": "20 to 36", "unit": "µM"}
    ]},
    {"molecule": "hemin", "values": [
      {"measurement": "concentration with dose-dependent cytostatic effect", "setting": "[1]; EBC-1 (Fig. S12)", "value": "≥ 33", "unit": "µM"},
      {"measurement": "dead cells", "setting": "[1]; EBC-1, 33 µM, 24 h treatment + 72 h culture, Alamar Blue", "value": "~ 20%"},
      {"measurement": "dead cells", "setting": "[1]; EBC-1, 100 µM, 24 h treatment + 72 h culture, Alamar Blue", "value": "~60", "unit": "%"},
      {"measurement": "concentration at which cytostatic", "setting": "[1]; EBC-1, compound alone, 24 h treatment + 72 h culture, Alamar Blue", "value": "> 10", "unit": "µM"},
      {"measurement": "cell morphology", "setting": "[2]", "value": "Non-damaged cells"}
    ]},
    {"molecule": "melittin", "values": [
      {"measurement": "Trp fluorescence quenching by hemin", "setting": "[3]; 2 µM peptide with PC liposomes", "value": "complete signal loss"},
      {"measurement": "Kd", "setting": "[6]; read-out: binding strength, interaction with hemin", "value": "60 to 120", "unit": "µM"},
      {"measurement": "remaining Trp fluorescence intensity on hemin quenching", "setting": "[7]", "value": "5–10%"},
      {"measurement": "hemolytic effects", "setting": "[5]", "value": "strong"}
    ]}
  ]
}
